Measured values taken from patent US8778889B2, “Antimicrobial decapeptide oral hygiene treatment” (The United States of America as represented by the …, priority 2003, dated 2014).
Ends that are not written are not given here.

Legend:
[1] = test system: oral biofilms formed on saliva-coated HA disks by salivary bacteria; assay: In vitro plaque assay, viable counts of oral biofilms on saliva-coated HA disks; format: cell-based, human salivary bacteria; settings: KSL 200 μg/ml
Excerpt: In conjunction with the dual flow cell system, a modification of an in vitro plaque model of biofilm formation described by Guggenheim et al. (Guggenheim et al., 2001) was used to determine the effects of tested antimicrobials and other agents on developed oral biofilms (see Appendix I for details). HA disks (Clarkson, south Williamsport, Pa.) were employed as substrates for salivary bacteria to form biofilms.
To determine the inhibitory activity of KSL on developed oral biofilms, disks containing 45 h-old biofilms were transferred to wells containing aqueous KSL (200 μg/ml; 1 ml/well). Following 30 min exposure at 37° C., disks were rinsed with 3×1 ml of saline and transferred to sterile 15 ml polypropylene tubes containing 1 ml PBS. Biofilm cells adherent to surfaces (after treatment) were recovered by sonicating for 2 min at 5 watts with a Microson ultrasonic cell disrupter equipped with a cup horn (Misonix Inc., Farmingdale, N.Y.). Settings including the time interval used in the sonication were predetermined empirically to yield maximal recovery of adherent biofilm cells.
The effect of KSL on disrupted biofilms was assessed by recovering biofilm cells from HA disks (45 h-old biofilms) through sonication as described above. The detached biofilm cells (in sterile dH2O) were mixed with an equal volume of aqueous KSL to obtain a final peptide concentration of 200 μg/ml, and the reaction mixtures incubated at 37° C. for 30 min. The interactions of KSL and suspended biofilm cells were terminated by washing in PBS.
To determine the effect of the surface-active agent (benzalkonium chloride; Sigma, St. Louis, Mo.) in promoting the killing of intact biofilms by KSL, 66 h-old oral biofilms were treated with KSL (200 μg/ml), benzalkonium chloride (0.001%), or a combination of the two agents, followed by viable counts determinations and confocal laser scanning microscopy of treated samples.
Viable counts of biofilm cells derived from treated disks or disrupted biofilms were determined by spiral plating serially diluted samples onto blood agar plates. Distilled water or 0.12% aqueous chlorhexidine digluconate (Sigma) was used as the negative or positive control, respectively. The 45 h-old biofilms were exposed to chlorhexidine for 1 min, and to water for 30 min at 37° C.
In this assay, HA disks (Clarkson Chromatography Products, Inc., South Williamsport, Pa.) were used as surfaces on which plaque formation can occur. Before use, sterile HA disks were conditioned in the wells of a 24-well microtiter plate (Becton Dickinson, Franklin Lakes, N.J.) containing 50% sterile saliva by incubating at room temperature for a minimum of two hours on a rotating platform at 95 rpm. The saliva was removed and each well inoculated with isolated salivary bacteria at a bacterial cell concentration of 1.0×10^7 cells/ml in sterile 50% whole saliva. After two hours of incubation (with rotation) at 37° C. to allow the bacteria to adhere to surfaces, unattached bacteria were removed and replaced with supplemented saliva-based medium. The plates were incubated with rotation at 37° C. for 45 h (with medium replaced three times), or 66 h (with medium replaced five times) in a CO2 incubator prior to treatments, and the recovery of biofilm cells from treated or untreated disks.
In these studies, KSL or KSL-W was used at 200 μg/ml, whereas Bzl and CPC were used at 0.001% and 0.0025%, respectively. […]

[2] = test system: oral biofilms formed by salivary bacteria on saliva-conditioned Ge surfaces; assay: Dual flow cell oral biofilm development (DIC microscopy); format: cell-based, human salivary bacteria
Excerpt: The dual flow cell system used in this study was modified from the chemostat flow cells of Herles et al. (Herles et al., 1994) and constructed according to our design and specifications by BioSurface Technologies (Bozeman, Mont.) (FIG. 1). The flow cell consisted of two compartments, each containing a polycarbonate flow chamber with three recesses to hold the Ge disks (10 mm in diameter and 1.8 mm in thickness) upon which biofilms were formed. Ge disks provided reflective surfaces that allowed the visualization of unstained biofilms using differential interference contrast (DIC) microscopy.
To form biofilms, Ge disks (Mindrum, Rancho Cucamonga, Calif.) in the dual flow cell were conditioned for one hour with sterile 50% human whole saliva. Isolated salivary bacteria, adjusted to approximately 1.0×10^7 cells/ml in 50% saliva (total, 1.5 ml), were injected into the flow chambers. After two hours of initial adherence of bacteria onto disk surfaces, the flow of culture medium (20% Todd-Hewitt broth) was started at a rate of 0.2 ml/min (Foster et al., 2004). The flow rate employed generated a shear rate of approximately 9.65 s^−1 on the substrate surface, and is compatible with the fluid flow in the oral cavity (Bakker et al., 2003).
To evaluate the effects of KSL in controlling the development and maturation of oral biofilms, surface adhered cells (after initial colonization) were perfused continuously with KSL-free or KSL-containing media (KSL at 10 or 50 μg/ml). Alternatively, biofilms at different stages of maturation (i.e., 4, or 6 h after inoculation) were pulse-treated using an injection pump at 0.2 ml/min with 50 μg/ml KSL in 20% THB or the control medium for 30 min at 2 hr intervals. Direct comparison of the effects of antimicrobials on the growth of biofilms between treated versus untreated was made in real-time by DIC microscopy.

KKVVFKVKFK-NH2 [KSL, Lys-Lys-Val-Val-Phe-Lys-Val-Lys-Phe-Lys-NH2]
reduction of viability, disrupted biofilms, versus dH2O-treated control cells ([1]; 45 h-old biofilms disrupted by sonication, 30 min, 37° C.): 1.8 log | effect on viability of intact biofilms compared to water treatment ([1]; 66 h-old oral biofilms, benzalkonium chloride 0.001%): less effect on the viability | reduction of viable counts, intact biofilms ([1]; intact 45-h-old biofilms, 30 min, 37° C.): small reduction of viable counts | effect on oral biofilm development ([2]; continuous perfusion, KSL at 10 μg/ml): partially effective in inhibiting biofilm formation | effect on oral biofilm development ([2]; continuous perfusion, KSL at 50 μg/ml): disrupted biofilm development | effect on oral biofilm development ([2]; pulsed treatment (30 min every 2 h, 50 μg/ml) starting 4 h after inoculation): inhibited biofilm formation | effect on oral biofilm development ([2]; pulsed treatment (30 min every 2 h, 50 μg/ml) starting 6 h after inoculation): failed to inhibit the development of biofilm structures
